Measurements taken from patent US12662705B2, “Interferon pathway genes regulate and predict efficacy of immunotherapy” (THE TRUSTEES OF THE UNIVERSITY OF PENNSYLVANIA, priority 2018, dated 2026).
“Also recorded” adds a separate entry of the source.

Assays:
[1] = tested on: PD-L1 positive advanced NSCLC; conditions: cited from earlier work
[2] = tested on: IFNGR knockout Res 499 tumors; test: In vivo cytokine rescue studies in CD8 T cell-depleted mice; parameters: species or system mouse; conditions: direct intratumoral injection
Protocol: In vivo cytokine rescue studies: All mice were pre-treated with anti-CD8 two days before tumor injection. Either 1 μg IFNg or 100 ng CXCL10 was mixed in the PBS/tumor cell suspension prior to injection of the tumor. Mice then continued receiving 500-1000 ng IFNG or 100 ng CXCL10 intra/peritumorally every 3 days post-tumor implantation. For flow cytometry experiments, mice were harvested at day 13 to examine the effects of cytokine addback on immune recruitment in the absence of CD8 T cells. For survival experiments, intra/peritumoral injections continued every 3 days for the remainder of the experiment.

JAK1 = JAK1 (Homo sapiens, UniProt P23458); conditions: read-out: half maximal inhibitory concentration [IC50]; cited from earlier work
JAK1, sequence (P23458 whole entry): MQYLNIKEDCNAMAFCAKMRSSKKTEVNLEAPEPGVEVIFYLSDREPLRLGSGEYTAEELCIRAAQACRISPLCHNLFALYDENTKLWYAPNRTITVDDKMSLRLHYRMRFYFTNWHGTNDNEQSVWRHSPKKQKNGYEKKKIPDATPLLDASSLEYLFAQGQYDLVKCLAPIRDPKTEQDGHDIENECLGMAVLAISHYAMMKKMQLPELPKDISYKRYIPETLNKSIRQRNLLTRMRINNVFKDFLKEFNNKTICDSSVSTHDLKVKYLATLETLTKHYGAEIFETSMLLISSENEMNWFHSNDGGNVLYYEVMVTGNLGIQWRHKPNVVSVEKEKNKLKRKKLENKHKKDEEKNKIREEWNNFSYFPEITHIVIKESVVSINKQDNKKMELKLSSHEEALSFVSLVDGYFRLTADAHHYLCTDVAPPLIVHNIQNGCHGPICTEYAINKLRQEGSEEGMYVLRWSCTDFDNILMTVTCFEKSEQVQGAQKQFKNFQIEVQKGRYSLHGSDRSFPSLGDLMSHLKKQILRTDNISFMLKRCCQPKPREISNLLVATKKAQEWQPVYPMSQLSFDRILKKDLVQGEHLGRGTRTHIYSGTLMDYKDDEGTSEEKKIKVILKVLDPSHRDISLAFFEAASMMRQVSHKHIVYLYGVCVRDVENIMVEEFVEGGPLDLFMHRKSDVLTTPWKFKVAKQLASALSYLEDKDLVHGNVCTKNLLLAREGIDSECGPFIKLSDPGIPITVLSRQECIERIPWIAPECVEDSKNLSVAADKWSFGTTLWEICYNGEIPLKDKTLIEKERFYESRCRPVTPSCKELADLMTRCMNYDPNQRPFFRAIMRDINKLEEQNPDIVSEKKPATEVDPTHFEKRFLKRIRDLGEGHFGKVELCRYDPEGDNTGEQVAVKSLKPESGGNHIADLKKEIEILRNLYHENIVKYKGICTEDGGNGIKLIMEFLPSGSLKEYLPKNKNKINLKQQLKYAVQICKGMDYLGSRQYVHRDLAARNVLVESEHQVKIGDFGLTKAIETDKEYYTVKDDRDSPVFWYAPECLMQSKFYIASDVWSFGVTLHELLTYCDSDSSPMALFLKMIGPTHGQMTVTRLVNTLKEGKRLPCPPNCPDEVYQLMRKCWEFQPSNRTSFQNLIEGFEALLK

[3] = total daily dose 1200 mg; cited from earlier work

For “Pembrolizumab: humanized monoclonal antibody of the IgG4/kappa isotype blocking the interaction between PD-1 and its ligands”, the “overall and progression free survival versus platinum doublet chemotherapy” value ([1]; PD-L1 expression greater than or equal to 50%) is listed as “superior overall and progression free survival; also recorded: improve overall survival and progression free survival”, the response rate ([1]; first line NSCLC, tumors expressing high level of PD-L1 (>50%)) is listed as 44.8% and the ORR ([1]; untreated PD-L1 positive advanced NSCLC) is listed as 45%.
With “CXCL10: IFNG-regulated CXCR3 ligand chemokine injected intra/peritumorally” the “rescue of the decrease in NK/ILC frequency after CD8 T cell depletion” value [2] was “partially rescue”.
In the case of N#CCC1(n2cc(-c3ncnc4[nH]ccc34)cn2)CN(C2CCN(C(=O)c3ccnc(C(F)(F)F)c3F)CC2)C1 [Itacitinib], the IC50 (JAK1) is given as 3.6 nM and the “adverse events at highest total daily dose” value [3] is given as “no adverse events”.
